Where two headings read alike, the source gives them in different places. Some results are limits rather than exact numbers.

The text below walks through data of patent US12258327B2, “5-membered heteroaryl-containing aminopyridine compounds as EGFR inhibitors” (YUHAN CORPORATION, priority 2021, dated 2025).

The target of one experiment is EGFR del19/T790M/C797S (Homo sapiens, UniProt P00533, C797S/DEL746-750/T790M). In words: Biochemical EGFR kinase assay (Lance Ultra TR-FRET), triple mutant del19/T790M/C797S. In outline:
(§1)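 Step 1: compound in kinase buffer, 0.003–10 μM. Step 2: kinase reaction 1 h at room temperature. Step 4: TR-FRET read at 615/665 nm; IC50 calculated.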
(In general: TR-FRET usually uses a lanthanide donor and a delayed reading to cut background.)

In a further experiment the target is EGFR del19/C797S (Homo sapiens, UniProt P00533, C797S/DEL746-750). In words: Biochemical EGFR kinase assay (Lance Ultra TR-FRET), double mutant del19/C797S. The essentials:
as §1

The target in a further experiment is EGFR wildtype (WT) (Homo sapiens, UniProt P00533). In words: Biochemical EGFR kinase assay (Lance Ultra TR-FRET), wildtype. The essentials: as §1
The next experiment concerns the target EGFR L858R/C797S (Homo sapiens, UniProt P00533, C797S/L858R). In words: Biochemical EGFR kinase assay (Lance Ultra TR-FRET), double mutant L858R/C797S. The essentials: as §1
Another experiment deals with EGFR L858R/T790M/C797S (Homo sapiens, UniProt P00533, C797S/L858R/T790M). In words: Biochemical EGFR kinase assay (Lance Ultra TR-FRET), triple mutant L858R/T790M/C797S. The essentials:
as §1

Setting [1] is: IC50 del19/T790M/C797S (nM) 100 μM ATP, 100 μM ATP.
The mark [2] stands for this setting: Km ATP, read-out: IC50 del19/T790M/C797S (nM) Km ATP.
Where [3] appears, read: IC50 del19/C797S (nM) 100 μM ATP, 100 μM ATP.
[4] abbreviates: Km ATP, read-out: IC50 del19/C797S (nM) Km ATP.
Where [5] appears, read: IC50 WT (nM) 100 μM ATP, 100 μM ATP.
Setting [6] is: IC50 L858R/C797S (nM) 100 μM ATP, 100 μM ATP.
The mark [7] stands for this setting: Km ATP, read-out: IC50 L858R/C797S (nM) Km ATP.
[8] abbreviates: IC50 L858R/T790M/C797S (nM) 100 μM ATP, 100 μM ATP.
The mark [9] stands for this setting: Km ATP, read-out: IC50 L858R/T790M/C797S (nM) Km ATP.
[10] abbreviates: Km ATP, read-out: IC50 WT (nM) Km ATP.

Sequence of EGFR L858R/C797S (P00533 25-1210 C797S/L858R): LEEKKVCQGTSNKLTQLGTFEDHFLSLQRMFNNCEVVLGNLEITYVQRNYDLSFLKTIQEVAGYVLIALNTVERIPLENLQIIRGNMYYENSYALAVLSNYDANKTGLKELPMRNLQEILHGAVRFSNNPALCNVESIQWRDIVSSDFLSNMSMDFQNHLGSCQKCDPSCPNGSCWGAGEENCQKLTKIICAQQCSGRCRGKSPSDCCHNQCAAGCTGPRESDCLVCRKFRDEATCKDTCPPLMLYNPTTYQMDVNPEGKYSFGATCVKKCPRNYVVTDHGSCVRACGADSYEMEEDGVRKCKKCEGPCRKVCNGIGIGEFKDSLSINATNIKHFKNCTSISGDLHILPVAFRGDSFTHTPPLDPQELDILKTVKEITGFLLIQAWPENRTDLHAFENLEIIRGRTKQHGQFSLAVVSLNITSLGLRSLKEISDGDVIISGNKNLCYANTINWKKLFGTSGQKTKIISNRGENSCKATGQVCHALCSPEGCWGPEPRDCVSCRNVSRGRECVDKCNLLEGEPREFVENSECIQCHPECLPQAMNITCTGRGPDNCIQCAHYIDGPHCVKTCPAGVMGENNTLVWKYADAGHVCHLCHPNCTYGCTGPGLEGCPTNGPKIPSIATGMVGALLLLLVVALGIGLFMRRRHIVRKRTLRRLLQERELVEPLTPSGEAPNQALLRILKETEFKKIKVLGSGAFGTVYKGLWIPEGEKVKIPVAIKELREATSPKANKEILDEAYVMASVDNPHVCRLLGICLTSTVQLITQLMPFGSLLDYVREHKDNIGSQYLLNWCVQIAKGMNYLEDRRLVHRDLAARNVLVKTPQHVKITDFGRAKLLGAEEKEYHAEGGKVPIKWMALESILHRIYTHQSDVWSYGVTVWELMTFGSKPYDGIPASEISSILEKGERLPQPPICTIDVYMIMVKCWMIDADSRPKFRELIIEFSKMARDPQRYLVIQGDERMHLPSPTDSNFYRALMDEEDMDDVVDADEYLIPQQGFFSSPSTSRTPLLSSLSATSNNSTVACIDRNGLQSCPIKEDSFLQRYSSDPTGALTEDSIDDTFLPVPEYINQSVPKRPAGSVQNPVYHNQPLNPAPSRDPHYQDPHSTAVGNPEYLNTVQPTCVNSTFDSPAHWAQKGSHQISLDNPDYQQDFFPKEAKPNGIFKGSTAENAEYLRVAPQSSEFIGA
Sequence of EGFR wildtype (WT) (P00533 25-1210): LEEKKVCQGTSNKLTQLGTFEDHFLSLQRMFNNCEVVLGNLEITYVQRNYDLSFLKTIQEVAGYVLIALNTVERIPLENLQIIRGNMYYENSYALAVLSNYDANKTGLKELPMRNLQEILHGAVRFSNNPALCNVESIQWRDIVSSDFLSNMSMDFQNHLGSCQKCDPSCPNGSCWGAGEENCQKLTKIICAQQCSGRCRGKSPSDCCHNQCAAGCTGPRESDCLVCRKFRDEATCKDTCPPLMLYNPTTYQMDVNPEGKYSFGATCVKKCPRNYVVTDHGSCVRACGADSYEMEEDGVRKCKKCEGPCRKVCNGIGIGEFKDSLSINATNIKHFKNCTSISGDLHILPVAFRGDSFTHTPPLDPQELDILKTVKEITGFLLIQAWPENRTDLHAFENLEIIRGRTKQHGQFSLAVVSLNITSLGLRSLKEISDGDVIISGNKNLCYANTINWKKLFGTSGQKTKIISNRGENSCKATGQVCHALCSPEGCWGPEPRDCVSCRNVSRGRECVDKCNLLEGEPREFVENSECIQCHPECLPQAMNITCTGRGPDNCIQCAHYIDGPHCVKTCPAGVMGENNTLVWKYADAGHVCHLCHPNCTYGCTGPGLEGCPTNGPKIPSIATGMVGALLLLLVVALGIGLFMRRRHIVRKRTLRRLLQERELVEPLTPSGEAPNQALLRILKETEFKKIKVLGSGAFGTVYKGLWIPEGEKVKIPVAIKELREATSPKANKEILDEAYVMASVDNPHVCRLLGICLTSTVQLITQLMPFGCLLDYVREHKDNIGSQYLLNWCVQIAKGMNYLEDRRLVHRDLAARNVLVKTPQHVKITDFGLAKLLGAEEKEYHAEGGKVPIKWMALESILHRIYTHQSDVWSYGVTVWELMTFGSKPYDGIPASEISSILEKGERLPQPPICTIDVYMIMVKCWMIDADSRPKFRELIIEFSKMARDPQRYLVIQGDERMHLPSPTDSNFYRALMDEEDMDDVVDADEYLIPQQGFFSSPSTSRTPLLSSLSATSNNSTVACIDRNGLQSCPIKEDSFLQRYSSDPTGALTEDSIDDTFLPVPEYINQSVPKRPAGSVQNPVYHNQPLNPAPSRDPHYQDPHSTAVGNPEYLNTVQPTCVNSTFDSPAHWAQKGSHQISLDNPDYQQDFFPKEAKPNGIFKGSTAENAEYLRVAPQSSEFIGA
Sequence of EGFR del19/C797S (P00533 with tags, fused parts or gaps DEL746-750/C797S): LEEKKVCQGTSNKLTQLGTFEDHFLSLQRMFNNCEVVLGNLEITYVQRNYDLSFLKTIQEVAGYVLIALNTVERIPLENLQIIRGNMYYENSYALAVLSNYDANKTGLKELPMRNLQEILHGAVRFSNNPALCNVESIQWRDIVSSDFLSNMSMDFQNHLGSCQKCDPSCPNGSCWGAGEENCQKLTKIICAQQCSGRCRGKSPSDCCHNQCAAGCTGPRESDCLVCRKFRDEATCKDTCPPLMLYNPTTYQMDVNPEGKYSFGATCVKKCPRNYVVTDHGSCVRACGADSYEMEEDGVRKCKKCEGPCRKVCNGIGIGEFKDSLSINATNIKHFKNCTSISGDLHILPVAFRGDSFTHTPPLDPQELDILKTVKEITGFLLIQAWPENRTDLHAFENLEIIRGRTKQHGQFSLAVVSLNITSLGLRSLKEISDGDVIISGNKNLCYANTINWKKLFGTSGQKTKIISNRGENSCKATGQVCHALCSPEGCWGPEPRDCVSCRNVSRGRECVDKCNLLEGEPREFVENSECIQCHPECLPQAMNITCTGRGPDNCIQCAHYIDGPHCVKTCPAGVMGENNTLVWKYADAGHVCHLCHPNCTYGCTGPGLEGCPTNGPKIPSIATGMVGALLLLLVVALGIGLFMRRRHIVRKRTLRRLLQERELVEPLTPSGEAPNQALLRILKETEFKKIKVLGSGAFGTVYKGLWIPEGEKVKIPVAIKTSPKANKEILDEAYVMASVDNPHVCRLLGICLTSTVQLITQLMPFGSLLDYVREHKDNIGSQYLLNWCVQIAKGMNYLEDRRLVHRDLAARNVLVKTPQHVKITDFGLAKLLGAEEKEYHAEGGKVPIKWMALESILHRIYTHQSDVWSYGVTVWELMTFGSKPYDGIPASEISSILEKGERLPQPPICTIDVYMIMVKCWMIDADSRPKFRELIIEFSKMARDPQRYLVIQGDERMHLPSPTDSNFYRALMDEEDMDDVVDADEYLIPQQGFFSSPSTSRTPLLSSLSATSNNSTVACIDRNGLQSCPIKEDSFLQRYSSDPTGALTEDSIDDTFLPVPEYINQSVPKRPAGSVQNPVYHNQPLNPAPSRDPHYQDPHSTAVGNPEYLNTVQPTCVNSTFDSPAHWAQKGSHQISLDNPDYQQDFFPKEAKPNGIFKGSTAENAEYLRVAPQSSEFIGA
Sequence of EGFR del19/T790M/C797S (P00533 with tags, fused parts or gaps DEL746-750/T790M/C797S): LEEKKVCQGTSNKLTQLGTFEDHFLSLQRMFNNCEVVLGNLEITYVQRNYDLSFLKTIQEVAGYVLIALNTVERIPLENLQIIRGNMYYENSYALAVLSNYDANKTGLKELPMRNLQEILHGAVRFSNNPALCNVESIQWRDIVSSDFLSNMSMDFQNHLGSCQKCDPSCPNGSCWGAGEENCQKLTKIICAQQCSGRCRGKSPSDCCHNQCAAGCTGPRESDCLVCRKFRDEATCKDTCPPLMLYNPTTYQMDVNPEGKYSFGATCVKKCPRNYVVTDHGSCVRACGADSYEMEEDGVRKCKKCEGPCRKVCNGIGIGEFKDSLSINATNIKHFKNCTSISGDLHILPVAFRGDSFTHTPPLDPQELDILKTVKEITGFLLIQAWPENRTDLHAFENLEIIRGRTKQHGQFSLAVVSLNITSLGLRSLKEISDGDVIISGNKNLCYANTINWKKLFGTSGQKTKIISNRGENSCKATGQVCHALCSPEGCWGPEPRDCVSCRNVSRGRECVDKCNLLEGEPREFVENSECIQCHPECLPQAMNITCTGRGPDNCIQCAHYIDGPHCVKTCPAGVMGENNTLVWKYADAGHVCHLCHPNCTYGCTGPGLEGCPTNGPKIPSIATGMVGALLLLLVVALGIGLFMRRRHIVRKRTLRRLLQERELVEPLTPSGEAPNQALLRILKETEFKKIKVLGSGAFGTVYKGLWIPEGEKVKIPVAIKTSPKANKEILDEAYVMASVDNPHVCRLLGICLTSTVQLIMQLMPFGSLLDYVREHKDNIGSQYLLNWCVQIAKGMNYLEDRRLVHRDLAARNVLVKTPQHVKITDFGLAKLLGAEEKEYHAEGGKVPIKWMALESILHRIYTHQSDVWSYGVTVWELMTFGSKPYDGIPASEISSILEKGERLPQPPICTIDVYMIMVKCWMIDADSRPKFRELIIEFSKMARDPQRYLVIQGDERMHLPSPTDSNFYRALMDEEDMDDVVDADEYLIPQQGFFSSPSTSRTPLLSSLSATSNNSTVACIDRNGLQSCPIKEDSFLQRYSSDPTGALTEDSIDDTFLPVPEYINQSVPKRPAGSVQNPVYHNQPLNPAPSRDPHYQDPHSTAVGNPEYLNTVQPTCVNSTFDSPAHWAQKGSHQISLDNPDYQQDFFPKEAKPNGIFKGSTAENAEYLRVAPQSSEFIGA

For the molecule `Cn1nc(-c2cnc(Nc3ccnc(-c4cnn(S(=O)(=O)C5CC5)c4)n3)cc2N[C@H]2CC[C@@H](CN3CCC3)CC2)cc1C(F)(F)F` [Example 264, N^4-((1s,4s)-4-(Azetidin-1-ylmethyl)cyclohexyl)-N^2-(2-(1-(cyclopropylsulfonyl)-1H-pyrazol-4-yl)pyrimidin-4-yl)-5-(1-methyl-5-(trifluoromethyl)-1H-pyrazol-3-yl)pyridine-2,4-diamine], the IC50 at EGFR del19/T790M/C797S (setting [1]) is 1.4 nM; at EGFR del19/T790M/C797S (setting [2]), 1.7 nM; on EGFR del19/C797S (setting [3]), 0.9 nM; at EGFR del19/C797S (setting [4]), 0.8 nM; against EGFR wildtype (WT) (setting [5]), 244 nM; at EGFR L858R/C797S (setting [6]) it was 2.2 nM. For the same molecule, the IC50 amounted to 0.4 nM on EGFR L858R/C797S (setting [7]), 0.6 nM at EGFR L858R/T790M/C797S (setting [8]) and 0.4 nM at EGFR L858R/T790M/C797S (setting [9]).
In the case of `CN(C)S(=O)(=O)n1cc(-c2nccc(Nc3cc(N[C@H]4CC[C@@](C)(O)CC4)c(-c4cc(C(F)(F)F)n(C)n4)cn3)n2)cn1` [Example 330, 4-(4-((4-(((1s,4s)-4-Hydroxy-4-methylcyclohexyl)amino)-5-(1-methyl-5-(trifluoromethyl)-1H-pyrazol-3-yl)pyridin-2-yl)amino)pyrimidin-2-yl)-N,N-dimethyl-1H-pyrazole-1-sulfonamide], the IC50 against EGFR del19/T790M/C797S (setting [1]) was 2.2 nM; at EGFR del19/T790M/C797S (setting [2]) it was 2.6 nM; against EGFR del19/C797S (setting [3]), 35.1 nM; at EGFR del19/C797S (setting [4]) it was 15.7 nM; against EGFR wildtype (WT) (setting [5]), over 10000 nM; at EGFR wildtype (WT) (setting [10]), 65.3 nM. Further, the IC50 was found to be 63.3 nM on EGFR L858R/C797S (setting [6]), 1.6 nM on EGFR L858R/C797S (setting [7]), 3.9 nM at EGFR L858R/T790M/C797S (setting [8]) and 1.1 nM on EGFR L858R/T790M/C797S (setting [9]).
In the case of `C[C@]1(O)CC[C@@H](Nc2cc(Nc3ccnc(-c4cnn(S(=O)(=O)N5CCCC5)c4)n3)ncc2-c2ccn(C(F)F)n2)CC1` [Example 323, (1s,4s)-4-((5-(1-(Difluoromethyl)-1H-pyrazol-3-yl)-2-((2-(1-(pyrrolidin-1-ylsulfonyl)-1H-pyrazol-4-yl)pyrimidin-4-yl)amino)pyridin-4-yl)amino)-1-methylcyclohexan-1-ol], the IC50 on EGFR del19/T790M/C797S (setting [2]) stood at 10.4 nM; on EGFR del19/C797S (setting [4]) it was 1060 nM; on EGFR wildtype (WT) (setting [10]), 466 nM; at EGFR L858R/C797S (setting [7]), 143 nM; at EGFR L858R/T790M/C797S (setting [9]), 4.6 nM.
As for `Cn1nc(-c2cnc(Nc3ccnc(-c4cnn(S(=O)(=O)C5CC5)c4)n3)cc2N[C@H]2CC[C@@H](CO)CC2)cc1C(F)(F)F` [Example 253, ((1s,4s)-4-((2-((2-(1-(Cyclopropylsulfonyl)-1H-pyrazol-4-yl)pyrimidin-4-yl)amino)-5-(1-methyl-5-(trifluoromethyl)-1H-pyrazol-3-yl)pyridin-4-yl)amino)cyclohexyl)methanol], the IC50 worked out at 1.1 nM at EGFR del19/T790M/C797S (setting [1]); 3.2 nM against EGFR del19/C797S (setting [3]); 2.3 nM on EGFR del19/C797S (setting [4]); 618 nM on EGFR wildtype (WT) (setting [5]); 3.4 nM at EGFR wildtype (WT) (setting [10]); 10.6 nM on EGFR L858R/C797S (setting [6]). Moreover, the IC50 on EGFR L858R/C797S (setting [7]) turned out to be 7 nM; against EGFR L858R/T790M/C797S (setting [8]), 2.1 nM; at EGFR L858R/T790M/C797S (setting [9]), 0.9 nM.
Regarding `O=S(=O)(C1CC1)n1cc(-c2nccc(Nc3cc(NC4CC5(CC(O)C5)C4)c(-c4ccn(C(F)F)n4)cn3)n2)cn1` (stereo not shown) [Example 103, 6-((2-((2-(1-(Cyclopropylsulfonyl)-1H-pyrazol-4-yl)pyrimidin-4-yl)amino)-5-(1-(difluoromethyl)-1H-pyrazol-3-yl)pyridin-4-yl)amino)spiro[3.3]heptan-2-ol], the IC50 came to 0.8 nM on EGFR del19/T790M/C797S (setting [2]); 31 nM at EGFR del19/C797S (setting [4]); 58.2 nM on EGFR wildtype (WT) (setting [10]); 24 nM at EGFR L858R/C797S (setting [7]); 0.4 nM at EGFR L858R/T790M/C797S (setting [9]).
The corresponding values for `C[C@]1(O)CC[C@@H](Nc2cc(Nc3ccnc(Nc4ccnn4CC(F)F)n3)ncc2-c2ccn(C(F)F)n2)CC1` [Example 155, (1s,4s)-4-((2-((2-((1-(2,2-Difluoroethyl)-1H-pyrazol-5-yl)amino)pyrimidin-4-yl)amino)-5-(1-(difluoromethyl)-1H-pyrazol-3-yl)pyridin-4-yl)amino)-1-methylcyclohexan-1-ol] are 4.2 nM, 162 nM, 1100 nM, 139 nM and 2.8 nM.
For `C[C@]1(O)CC[C@@H](Nc2cc(Nc3ccnc(-c4ccc(F)nc4F)n3)ncc2-c2ccn(C(F)F)n2)CC1` [Example 170, (1s,4s)-4-((5-(1-(Difluoromethyl)-1H-pyrazol-3-yl)-2-((2-(2,6-difluoropyridin-3-yl)pyrimidin-4-yl)amino)pyridin-4-yl)amino)-1-methylcyclohexan-1-ol] the same measures were 49.7 nM, 1340 nM, 1980 nM, 814 nM and 16.9 nM.
For `CC(C)(CO)Cn1cc(-c2nccc(Nc3cc(N[C@H]4CC[C@@](C)(O)CC4)c(-c4ccn(C(F)F)n4)cn3)n2)cn1` [Example 173, (1s,4s)-4-((5-(1-(Difluoromethyl)-1H-pyrazol-3-yl)-2-((2-(1-(3-hydroxy-2,2-dimethylpropyl)-1H-pyrazol-4-yl)pyrimidin-4-yl)amino)pyridin-4-yl)amino)-1-methylcyclohexan-1-ol] the same measures were 3.9 nM, 333 nM, 16.7 nM, 107 nM and 0.9 nM.
For `O=S(=O)(C1CC1)n1cc(-c2nccc(Nc3cc(N[C@H]4CC[C@@H](O)CC4)c(-c4csc(C(F)(F)F)n4)cn3)n2)cn1` [Example 81, (1s,4s)-4-((2-((2-(1-(Cyclopropylsulfonyl)-1H-pyrazol-4-yl)pyrimidin-4-yl)amino)-5-(2-(trifluoromethyl)thiazol-4-yl)pyridin-4-yl)amino)cyclohexan-1-ol], the IC50 on EGFR del19/T790M/C797S (setting [1]) was 1.1 nM; against EGFR del19/C797S (setting [3]) it was 3.4 nM; against EGFR wildtype (WT) (setting [5]), 1240 nM; at EGFR L858R/C797S (setting [6]), 4.8 nM; at EGFR L858R/T790M/C797S (setting [8]), 1.2 nM.
`O=S(=O)(C1CC1)n1cc(-c2nccc(Nc3cc(NCC4(CO)COC4)c(-c4ccn(C(F)F)n4)cn3)n2)cn1` [Example 197, (3-(((2-((2-(1-(Cyclopropylsulfonyl)-1H-pyrazol-4-yl)pyrimidin-4-yl)amino)-5-(1-(difluoromethyl)-1H-pyrazol-3-yl)pyridin-4-yl)amino)methyl)oxetan-3-yl)methanol]: the IC50 is 0.2 nM at EGFR del19/T790M/C797S (setting [1]); 0.1 nM at EGFR del19/T790M/C797S (setting [2]); 2.2 nM on EGFR del19/C797S (setting [3]); 1.1 nM on EGFR del19/C797S (setting [4]); over 10000 nM against EGFR wildtype (WT) (setting [5]); 7.9 nM on EGFR wildtype (WT) (setting [10]). In addition, the IC50 was 70 nM on EGFR L858R/C797S (setting [6]), 2.1 nM at EGFR L858R/C797S (setting [7]), 0.3 nM against EGFR L858R/T790M/C797S (setting [8]) and 0.1 nM at EGFR L858R/T790M/C797S (setting [9]).
Regarding `C[C@]1(O)CC[C@@H](Nc2cc(Nc3ccnc(-c4cccnc4F)n3)ncc2-c2ccn(C(F)F)n2)CC1` [Example 171, (1s,4s)-4-((5-(1-(Difluoromethyl)-1H-pyrazol-3-yl)-2-((2-(2-fluoropyridin-3-yl)pyrimidin-4-yl)amino)pyridin-4-yl)amino)-1-methylcyclohexan-1-ol], the IC50 on EGFR del19/T790M/C797S (setting [2]) was determined as 2.6 nM; at EGFR del19/C797S (setting [4]), 96.6 nM; on EGFR wildtype (WT) (setting [10]), 523 nM; on EGFR L858R/C797S (setting [7]) it was 86.4 nM; at EGFR L858R/T790M/C797S (setting [9]), 2.2 nM.
For `C[C@]1(O)CC[C@@H](Nc2cc(Nc3ccnc(-c4cnn(CCF)c4)n3)ncc2-c2ccn(C(F)F)n2)CC1` [Example 145, (1s,4s)-4-((5-(1-(Difluoromethyl)-1H-pyrazol-3-yl)-2-((2-(1-(2-fluoroethyl)-1H-pyrazol-4-yl)pyrimidin-4-yl)amino)pyridin-4-yl)amino)-1-methylcyclohexan-1-ol] the same measures were 0.6 nM, 23 nM, 199 nM, 7.2 nM and 0.5 nM.
For `CN(C)C[C@H]1C[C@H](CNc2cc(Nc3ccnc(-c4cnn(S(=O)(=O)C5CC5)c4)n3)ncc2-c2ccn(CC(F)F)n2)C1` [Example 249, N^2-(2-(1-(Cyclopropylsulfonyl)-1H-pyrazol-4-yl)pyrimidin-4-yl)-5-(1-(2,2-difluoroethyl)-1H-pyrazol-3-yl)-N^4-(((1r,3r)-3-((dimethylamino)methyl)cyclobutyl)methyl)pyridine-2,4-diamine] the same measures were 0.4 nM, 11.5 nM, 7.5 nM, 6.1 nM and 0.1 nM.
For `FC(F)Cn1cc(-c2nccc(Nc3cc(NC4CCCC(F)C4)c(-c4ccn(C(F)F)n4)cn3)n2)cn1` (stereo not shown) [Example 180, N^2-(2-(1-(2,2-Difluoroethyl)-1H-pyrazol-4-yl)pyrimidin-4-yl)-5-(1-(difluoromethyl)-1H-pyrazol-3-yl)-N^4-(3-fluorocyclohexyl)pyridine-2,4-diamine] the same measures were 1.3 nM, 410 nM, 418 nM, 23.2 nM and 1.1 nM.
